# Assay results as given in patent US11117875B2, “Crystalline forms, preparation methods and pharmaceutical compositions of ozanimod” (Hangzhou SoliPharma Co., Ltd., priority 2016, dated 2021).
# Like-named read-outs stand apart in the source and are kept apart here.
# Experiments:
# Assay type in all cases: physicochemical
# [1] = Form stability test at 50° C.; conditions: for Crystalline form, storage time 0 day / Form stability after having been placed at 50° C. for 1 day: 50° C.; for Crystalline form, storage time 0 day: 0 day (start); for Crystalline form, storage time 5 days: placed at 50° C.
# Procedure: The known ozanimod solid of Preparation Example 1 and ozanimod Form 1 of Example 1 were tested in form stability test. The procedures are detailed as follows: placed about 20 mg of the above two samples respectively at 50° C., and studied their form stability.
# [2] = Storage at room temperature in desiccators with relative humidity ranging from 10% to 90%; conditions: relative humidity 10% to 90%
# [3] = Form stability in water (stirred in water)
# Procedure: The form stability in water of the known ozanimod of Preparation Example 1 and ozanimod Form 2 of Example 10 were compared. The procedures are detailed as follows: took about 20 mg of the above two samples respectively, stirred in water, and studied the form stability.
# [4] = Form stability under 97% relative humidity; conditions: for Crystalline form, storage time 5 days: 97% RH environment; for Crystalline form, storage time 0 day: 0 day (start)
# Procedure: The known ozanimod of Preparation Example 1 and ozanimod Form 3 of Example 19 were compared in their form stability under 97% relative humidity. The procedures are detailed as follows: placed about 20 mg of the above two samples respectively at 97% RH environment, and studied their crystalline form stability.
# [5] = listed as known amorphous form of ozanimod
"Crystalline form, storage time 0 day [1]",Form stability after having been placed at 50° C. for 1 day [1],"Crystalline form, storage time 5 days [1]","Crystalline form, storage time 5 days ([1]; listed as ozanimod Form 1)","Appearance, XRPD and melting point after 4 months storage [2]","Form stability after having been placed at 50° C. for 1 day [1, 5]",Crystalline form after stirred in water for 3 days [3],"Crystalline form after stirred in water for 3 days [3, 5]","Crystalline form, storage time 5 days [4]","Crystalline form, storage time 0 day ([4]; 97% RH)","Form stability at room temperature and 97% relative humidity for 3 days [4, 5]","Form stability after storage at 97% RH for 10 days ([4]; 97% RH, 10 days)",Form stability at room temperature and 97% relative humidity for 3 days [4],Crystalline form after stirred in water for 3 days ([3]; listed as Form 2),Crystalline form after stirred in water for 3 days ([3]; listed as ozanimod Form 2),SMILES
Form 1,remained unchanged,Remained Form 1,more stable,remained unchanged,–,–,–,–,–,–,–,–,–,–,"CC(C)Oc1ccc(-c2nc(-c3cccc4c3CC[C@@H]4NCCO)no2)cc1C#N [Ozanimod Form 1, 5-[3-[(1S)-2,3-dihydro-1-(2-hydroxyethylamino)-1H-inden-4-yl]-1,2,4-oxadiazol-5-yl]-2-isopropoxybenzonitrile]"
Amorphous,–,Weak diffraction,–,–,showed diffraction peaks,Transformed to Form 2,turned to Form 2,Weak diffraction,Amorphous,turned to Form 3,–,–,–,–,"CC(C)Oc1ccc(-c2nc(-c3cccc4c3CC[C@@H]4NCCO)no2)cc1C#N [The known ozanimod, 5-[3-[(1S)-2,3-dihydro-1-(2-hydroxyethylamino)-1H-inden-4-yl]-1,2,4-oxadiazol-5-yl]-2-isopropoxybenzonitrile, reference compound]"
–,–,–,–,–,–,–,–,Remained Form 3,Form 3,–,remained unchanged,remained unchanged,–,–,"CC(C)Oc1ccc(-c2nc(-c3cccc4c3CC[C@@H]4NCCO)no2)cc1C#N [Ozanimod Form 3, 5-[3-[(1S)-2,3-dihydro-1-(2-hydroxyethylamino)-1H-inden-4-yl]-1,2,4-oxadiazol-5-yl]-2-isopropoxybenzonitrile]"
–,–,–,–,remained unchanged,–,Remained Form 2,–,–,–,–,–,–,remained unchanged,remained unchanged,"CC(C)Oc1ccc(-c2nc(-c3cccc4c3CC[C@@H]4NCCO)no2)cc1C#N [Ozanimod Form 2, 5-[3-[(1S)-2,3-dihydro-1-(2-hydroxyethylamino)-1H-inden-4-yl]-1,2,4-oxadiazol-5-yl]-2-isopropoxybenzonitrile]"
